ChEMBL document CHEMBL5154648, “Antitumor activity of novel POLA1-HDAC11 dual inhibitors” (Eur J Med Chem, 2022)
Activity calls are given as the source filed them. No cut-off for these calls is given here.

Assays:
[1] = Antitumor activity against human MM487 cells xenografted in mouse assessed as tumor growth inhibition at 50 mg/kg, po bid administered 5 times a week for 3 weeks; assay type: functional; conditions: MM487, 504 h, read-out: TGI
A2780 [2] = experiment: Induction of cell cycle arrest in human A2780 cells assessed as accumulation of cells at G0/1 phase at 0.95 uM after 72 hrs by flow cytometry (reference value: 48.7%); assay type: functional
NCI-H460 = experiment: Induction of cell cycle arrest in human NCI-H460 cells assessed as accumulation of cells at G2/M phase at 0.26 uM after 72 hrs by flow cytometry (reference value: 21.1%); assay type: functional
[3] = molecular target: T1, Histone deacetylase 11 (Homo sapiens) (UniProt Q96DB2); experiment: Inhibition of HDAC11 in human A2780 cells at 0.1 to 0.4 uM assessed as induction of p53 acetylation and measured by Western blot analysis; assay type: cell-based; conditions: dose 0.1-0.4 µM
T1 sequence (whole entry): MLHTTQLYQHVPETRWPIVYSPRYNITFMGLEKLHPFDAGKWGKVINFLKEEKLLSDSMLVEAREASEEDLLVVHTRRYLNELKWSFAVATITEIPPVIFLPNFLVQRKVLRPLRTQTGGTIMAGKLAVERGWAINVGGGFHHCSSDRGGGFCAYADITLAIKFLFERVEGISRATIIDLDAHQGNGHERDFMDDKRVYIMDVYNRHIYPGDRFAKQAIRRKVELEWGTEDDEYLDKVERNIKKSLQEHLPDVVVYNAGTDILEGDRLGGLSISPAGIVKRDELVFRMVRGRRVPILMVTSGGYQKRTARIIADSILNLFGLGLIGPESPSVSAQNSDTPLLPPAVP

A2780 [4] = experiment: Induction of cell cycle arrest in human A2780 cells assessed as accumulation of cells at S phase at 0.95 uM after 72 hrs by flow cytometry (reference value: 36.3%); assay type: functional
A2780 [5] = experiment: Induction of cell cycle arrest in human A2780 cells assessed as accumulation of cells at G2/M phase at 0.95 uM after 72 hrs by flow cytometry (reference value: 15%); assay type: functional
[6] = Induction of cell cycle arrest in human H460-R9A cells assessed as accumulation of cells at G2/M phase at 2.2 uM after 72 hrs by flow cytometry (reference value: 15.4%); assay type: functional
Mus musculus = experiment: Inhibition of POLA1 in mouse B16 cells xenografted C57BL/6 mouse assessed as increase in IFN-alpha levels at 50 mg/kg, po administered twice a day for 5 days measured by ELISA assay; assay type: functional, organism-based; conditions: time 5.0 day
MM473 = experiment: Induction of cell cycle arrest in human MM473-Luc cells assessed as accumulation of cells at sub-G1 phase at 1.2 uM after 72 hrs by flow cytometry (reference value: 1.3%); assay type: functional
[7] = molecular target: T1, Histone deacetylase 11 (Homo sapiens); experiment: Inhibition of HDAC11 in human MM473 cells at 0.1 to 0.4 uM assessed as induction of p53 acetylation and measured by Western blot analysis; assay type: cell-based; conditions: dose 0.1-0.4 µM
[8] = Antitumor activity against human H460-R9A cells xenografted in mouse assessed as tumor growth inhibition at 50 mg/kg, po qd administered 5 times a week for 3 to 4 weeks; assay type: functional; conditions: time 3-4 weeks, read-out: TGI

CC(Oc1ccc(-c2ccc(C=CC(=O)O)cc2)cc1C12CC3CC(CC(C3)C1)C2)C(=O)NO (stereo unspecified)
inhibition in vivo at 50 mg/kg [1]: 72%
Activity (A2780 [2]): 10.8%
Activity (NCI-H460): 7.8%
inhibition [3]: Active
Activity (A2780 [4]): 86.2%
Activity (A2780 [5]): 3%

O=C(O)C=Cc1ccc(-c2ccc(O)c(C34CC5CC(CC(C5)C3)C4)c2)cc1
Activity [6]: 13.8%

O=C(O)C=Cc1ccc(-c2ccc(OCC(=O)NO)c(C34CC5CC(CC(C5)C3)C4)c2)cc1
inhibition (Mus musculus): Active
Activity (MM473): 39.7%
inhibition [7]: Active
inhibition in vivo at 50 mg/kg [8]: 38%
